These results are taken from the supplement of paper PMC10307832.

Holding throughout (test): relative viability (nuclei count vs DMSO), 5 days (fraction); higher = more cells survive
Compound in test [1]: C1CNCCC1C2=CC(=NN2)C3=CC=NC=C3 + N=C(N)NC(=N)NCCc1ccccc1 [Phenformin] (partner 250 µM)
Summed up: (§1)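 The day after seeding in 1536-well plates, lung cancer cell lines were treated by pin tool with a single drug, or with a fixed anchor-drug dose together with five library-drug doses (not always all listed) in √10 steps. After 5 days, a combined fix-and-stain solution (final 0.05% Triton X-100, 1% formaldehyde, 1 ug/ml Hoechst) was added. Nuclei counted on 4× images gave relative viability as treated counts over vehicle counts, reported as the median of duplicate plates.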

Compound in test [2]: C[C@@H](N)c1ccc(C(=O)Nc2ccnc3[nH]ccc23)cc1 + CC1(C)CCC(c2ccc(Cl)cc2)=C(CN2CCN(c3ccc(C(=O)NS(=O)(=O)c4ccc(N[C@H](CCN5CCOCC5)CSc5ccccc5)c(S(=O)(=O)C(F)(F)F)c4)cc3)CC2)C1 [Navitoclax] (partner 0.5 µM)
Summed up: as §1

Compound in the test “Tanzisertib + Pemetrexed”: O[C@H]1CC[C@H](Nc2ncc3nc(Nc4c(F)cc(F)cc4F)n([C@H]4CCOC4)c3n2)CC1 [Tanzisertib] + Nc1nc2[nH]cc(CCc3ccc(C(=O)N[C@@H](CCC(=O)O)C(=O)O)cc3)c2c(=O)[nH]1 [Pemetrexed] (partner 0.2 µM)
In short, it runs like this: as §1

Compound in the test “Tanzisertib + Olaparib”: O[C@H]1CC[C@H](Nc2ncc3nc(Nc4c(F)cc(F)cc4F)n([C@H]4CCOC4)c3n2)CC1 [Tanzisertib] + O=C(c1cc(Cc2n[nH]c(=O)c3ccccc23)ccc1F)N1CCN(C(=O)C2CC2)CC1 [Olaparib] (partner 8 µM)
Summed up:
as §1

For UMC-11, the relative viability in test [1] (first compound 0.08 µM) was 0.325; in test [1] (first compound 0.8 µM) it was 0.209; in test [1] (first compound 2.53 µM), 0.348; in test [1] (first compound 8 µM) it was 0.351; in test [2] (first compound 0.04 µM), 0.318; in test [2] (first compound 0.1265 µM), 0.323. Besides, the relative viability in test [2] (first compound 0.4 µM) was 0.332; in test [2] (first compound 1.265 µM) it was 0.27; in test [2] (first compound 4 µM) it was 0.211; with Tanzisertib + Pemetrexed (first compound 0.08 µM) it was 0.801; with Tanzisertib + Pemetrexed (first compound 0.253 µM) it was 0.793; with Tanzisertib + Pemetrexed (first compound 0.8 µM) it was 0.784. The relative viability with Tanzisertib + Pemetrexed (first compound 2.53 µM) is 0.816; with Tanzisertib + Pemetrexed (first compound 8 µM), 0.833; with Tanzisertib + Olaparib (first compound 0.08 µM), 0.355; with Tanzisertib + Olaparib (first compound 0.253 µM), 0.412; with Tanzisertib + Olaparib (first compound 0.8 µM), 0.411; in the test with Tanzisertib + Olaparib (first compound 2.53 µM), 0.501. Moreover, in the test with Tanzisertib + Olaparib (first compound 8 µM), the relative viability is 0.388.
